Measured values taken from the NIST ThermoML archive (doi:10.1016/j.jct.2006.08.009).
± gives the expanded uncertainty stated by the source.

Test: mn = molality of the nth substance listed, in mol/kg
Conditions: 350 kPa, Liquid; for apparent molar heat capacity: Extra sensitive DSC

OC[C@@H](O)[C@H](O)[C@H](O)[C@@H](O)CO [dulcitol] + O
Conditions | apparent molar heat capacity [J/K/mol] | mass density [kg/m3]
278.15 K, m1 = 0.0188 | 374 ± 60 | 1001.19 ± 0.18
278.15 K, m1 = 0.0418 | 369 ± 30 | 1002.77 ± 0.18
278.15 K, m1 = 0.0698 | 379.2 ± 18 | 1004.44 ± 0.18
278.15 K, m1 = 0.0986 | 380.1 ± 19 | 1006.47 ± 0.19
278.15 K, m1 = 0.119 | 370.3 ± 16 | 1007.99 ± 0.19
278.15 K, m1 = 0.1492 | 379.2 ± 13 | 1009.86 ± 0.19
283.15 K, m1 = 0.0188 | 394 ± 58 | 1000.99 ± 0.18
283.15 K, m1 = 0.0418 | 389 ± 30 | 1002.48 ± 0.18
283.15 K, m1 = 0.0698 | 397.8 ± 17 | 1004.2 ± 0.18
283.15 K, m1 = 0.0986 | 398.6 ± 18 | 1006.13 ± 0.19
283.15 K, m1 = 0.119 | 388.5 ± 16 | 1007.58 ± 0.19
283.15 K, m1 = 0.1492 | 397.5 ± 13 | 1009.47 ± 0.19
288.15 K, m1 = 0.0188 | 409 ± 57 | 1000.42 ± 0.18
288.15 K, m1 = 0.0418 | 405 ± 28 | 1001.85 ± 0.18
288.15 K, m1 = 0.0698 | 412.3 ± 17 | 1003.61 ± 0.18
288.15 K, m1 = 0.0986 | 413.3 ± 18 | 1005.5 ± 0.19
288.15 K, m1 = 0.119 | 402.7 ± 15 | 1006.94 ± 0.19
288.15 K, m1 = 0.1492 | 412 ± 13 | 1008.75 ± 0.19
293.15 K, m1 = 0.0188 | 423 ± 57 | –
293.15 K, m1 = 0.0418 | 418 ± 28 | –
293.15 K, m1 = 0.0698 | 425.3 ± 17 | –
293.15 K, m1 = 0.0986 | 426.5 ± 18 | –
293.15 K, m1 = 0.119 | 416.6 ± 15 | –
293.15 K, m1 = 0.1492 | 425 ± 12 | –
298.15 K, m1 = 0.0188 | 434 ± 56 | 998.35 ± 0.18
298.15 K, m1 = 0.0418 | 430 ± 28 | 999.74 ± 0.18
298.15 K, m1 = 0.0698 | 436.4 ± 16 | 1001.5 ± 0.18
298.15 K, m1 = 0.0986 | 437.6 ± 18 | 1003.47 ± 0.18
298.15 K, m1 = 0.119 | 428.5 ± 15 | 1004.74 ± 0.18
298.15 K, m1 = 0.1492 | 436.1 ± 12 | 1006.52 ± 0.18
303.15 K, m1 = 0.0188 | 444 ± 54 | –
303.15 K, m1 = 0.0418 | 439 ± 27 | –
303.15 K, m1 = 0.0698 | 446 ± 16 | –
303.15 K, m1 = 0.0986 | 447.4 ± 18 | –
303.15 K, m1 = 0.119 | 438.9 ± 15 | –
303.15 K, m1 = 0.1492 | 445.8 ± 12 | –
308.15 K, m1 = 0.0188 | 453 ± 54 | 995.36 ± 0.19
308.15 K, m1 = 0.0418 | 448 ± 27 | 996.65 ± 0.18
308.15 K, m1 = 0.0698 | 454.4 ± 16 | 998.44 ± 0.18
308.15 K, m1 = 0.0986 | 456 ± 17 | 1000.21 ± 0.18
308.15 K, m1 = 0.119 | 447.9 ± 15 | 1001.54 ± 0.18
308.15 K, m1 = 0.1492 | 454.3 ± 12 | 1003.38 ± 0.18
313.15 K, m1 = 0.0188 | 461 ± 53 | –
313.15 K, m1 = 0.0418 | 455.7 ± 27 | –
313.15 K, m1 = 0.0698 | 462.1 ± 16 | –
313.15 K, m1 = 0.0986 | 463.5 ± 17 | –
313.15 K, m1 = 0.119 | 456 ± 14 | –
313.15 K, m1 = 0.1492 | 461.9 ± 12 | –
318.15 K, m1 = 0.0188 | 468 ± 53 | 991.52 ± 0.19
318.15 K, m1 = 0.0418 | 462.7 ± 26 | 992.87 ± 0.19
318.15 K, m1 = 0.0698 | 468.8 ± 15 | 994.59 ± 0.19
318.15 K, m1 = 0.0986 | 470.3 ± 17 | 996.35 ± 0.18
318.15 K, m1 = 0.119 | 463.3 ± 15 | 997.6 ± 0.18
318.15 K, m1 = 0.1492 | 468.7 ± 12 | 999.44 ± 0.17
323.15 K, m1 = 0.0188 | 475 ± 51 | –
323.15 K, m1 = 0.0418 | 469 ± 26 | –
323.15 K, m1 = 0.0698 | 474.9 ± 15 | –
323.15 K, m1 = 0.0986 | 476.5 ± 17 | –
323.15 K, m1 = 0.119 | 469.8 ± 14 | –
323.15 K, m1 = 0.1492 | 474.8 ± 12 | –
328.15 K, m1 = 0.0188 | 481 ± 50 | 986.98 ± 0.2
328.15 K, m1 = 0.0418 | 474.7 ± 26 | 988.34 ± 0.2
328.15 K, m1 = 0.0698 | 480.5 ± 15 | 990.01 ± 0.19
328.15 K, m1 = 0.0986 | 482.1 ± 17 | 991.76 ± 0.19
328.15 K, m1 = 0.119 | 475.7 ± 14 | 993.01 ± 0.19
328.15 K, m1 = 0.1492 | 480.4 ± 12 | 994.81 ± 0.18
333.15 K, m1 = 0.0188 | 486 ± 50 | –
333.15 K, m1 = 0.0418 | 479.8 ± 26 | –
333.15 K, m1 = 0.0698 | 485.6 ± 15 | –
333.15 K, m1 = 0.0986 | 487.2 ± 17 | –
333.15 K, m1 = 0.119 | 481 ± 14 | –
333.15 K, m1 = 0.1492 | 485.5 ± 12 | –
338.15 K, m1 = 0.0188 | 491 ± 49 | 981.81 ± 0.21
338.15 K, m1 = 0.0418 | 484.5 ± 25 | 983.19 ± 0.21
338.15 K, m1 = 0.0698 | 490.1 ± 15 | 984.85 ± 0.2
338.15 K, m1 = 0.0986 | 491.8 ± 17 | 986.55 ± 0.2
338.15 K, m1 = 0.119 | 486 ± 14 | 987.85 ± 0.2
338.15 K, m1 = 0.1492 | 490.1 ± 12 | 989.64 ± 0.19
343.15 K, m1 = 0.0188 | 495 ± 49 | –
343.15 K, m1 = 0.0418 | 488.6 ± 25 | –
343.15 K, m1 = 0.0698 | 494.2 ± 14 | –
343.15 K, m1 = 0.0986 | 495.9 ± 17 | –
343.15 K, m1 = 0.119 | 490.4 ± 14 | –
343.15 K, m1 = 0.1492 | 494.3 ± 12 | –
348.15 K, m1 = 0.0188 | 499 ± 48 | 976.1 ± 0.22
348.15 K, m1 = 0.0418 | 492.2 ± 25 | 977.46 ± 0.22
348.15 K, m1 = 0.0698 | 497.9 ± 14 | 979.12 ± 0.22
348.15 K, m1 = 0.0986 | 499.6 ± 17 | 980.85 ± 0.21
348.15 K, m1 = 0.119 | 494.4 ± 14 | 982.09 ± 0.21
348.15 K, m1 = 0.1492 | 497.9 ± 12 | 983.86 ± 0.21
353.15 K, m1 = 0.0188 | 502 ± 47 | –
353.15 K, m1 = 0.0418 | 495.4 ± 25 | –
353.15 K, m1 = 0.0698 | 501.2 ± 14 | –
353.15 K, m1 = 0.0986 | 502.9 ± 17 | –
353.15 K, m1 = 0.119 | 498.1 ± 14 | –
353.15 K, m1 = 0.1492 | 501.2 ± 12 | –
358.15 K, m1 = 0.0188 | 504 ± 47 | 969.86 ± 0.24
358.15 K, m1 = 0.0418 | 498.1 ± 24 | 971.46 ± 0.23
358.15 K, m1 = 0.0698 | 503.5 ± 14 | 972.88 ± 0.23
358.15 K, m1 = 0.0986 | 505.2 ± 16 | 974.54 ± 0.23
358.15 K, m1 = 0.119 | 501.3 ± 14 | 975.86 ± 0.23
358.15 K, m1 = 0.1492 | 503.6 ± 11 | 977.9 ± 0.22
363.15 K, m1 = 0.0188 | 506 ± 46 | –
363.15 K, m1 = 0.0418 | 499.6 ± 24 | –
363.15 K, m1 = 0.0698 | 504.4 ± 14 | –
363.15 K, m1 = 0.0986 | 505.7 ± 16 | –
363.15 K, m1 = 0.119 | 504.1 ± 13 | –
363.15 K, m1 = 0.1492 | 504.3 ± 11 | –
368.15 K, m1 = 0.0188 | – | 963.12 ± 0.25
368.15 K, m1 = 0.0418 | – | 964.48 ± 0.25
368.15 K, m1 = 0.0698 | – | 966.14 ± 0.25
368.15 K, m1 = 0.0986 | – | 967.86 ± 0.24
368.15 K, m1 = 0.119 | – | 969.19 ± 0.24
368.15 K, m1 = 0.1492 | – | 970.84 ± 0.24
